Data reported in patent publication US9586986B2, “Substituted 7-deazapurine ribonucleosides for therapeutic uses” (Institute of Organic Chemistry and Biochemistry ASCR, v.v.i., priority 2014, dated 2017).
Where two headings read alike, the source gives them in different places.

Key:
Format in all cases: cell-based
[1] = tested on: HCV subtype 2A replicon in Huh-7 cells; assay: HCV sub-genomic reporter replicon assay, subtype 2A; conditions: Hepatitis C virus
Procedure: (§1) Compounds were also tested in Huh-7 cells harboring sub-genomic reporter replicons derived from HCV subtypes 1B and 2A (ref.: Stuyver, L. J.; Whitaker, T.; McBrayer, T. R.; Hernandez-Santiago, B. I.; Lostia, S.; Tharnish, P. M.; Ramesh, M.; Chu, C. K.; Jordan, R.; Shi, J. X.; Rachakonda, S.; Watanabe, K. A.; Otto, M. J.; Schinazi, R. F. Antimicrob. Agents Chemother. 2003, 47, 244-254).

MRC-5 = assay: Cytostatic/cytotoxic MTT assay, MRC-5 fibroblasts; conditions: Homo sapiens, read-out: MTT, IC50 MRC-5
Method in brief: (§2)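 72 h exposure, duplicate four-fold dilutions; MTT 1-4 h, SDS solubilisation, A540. IC50 = 50% growth inhibition from dose-response fit. MRC-5 and BJ are non-malignant human fibroblasts.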

CEM-DNR-bulk = assay: Cytostatic/cytotoxic MTT assay, CEM-DNR-bulk; conditions: Homo sapiens, 72 h, read-out: MTT, IC50 CEM-DNR-bulk
Method in brief: (§3)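 Human cancer lines, including daunorubicin-resistant CEM-DNR (mrp-1/mdr-1 overexpressing) and paclitaxel-resistant K562-TAX (mdr-1), seeded 25,000-30,000 cells/well, pre-incubated 24 h, then treated in duplicate with four-fold dilutions for 72 h at 37° C, 5% CO2. MTT read-out at 540 nm; IC50 from dose-response curves.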

K562-TAX = assay: Cytostatic/cytotoxic MTT assay, K562-TAX; conditions: Homo sapiens, 72 h, read-out: MTT, IC50 K562-TAX
Method in brief: as §3

BJ = assay: Cytostatic/cytotoxic MTT assay, BJ fibroblasts; conditions: Homo sapiens, 72 h, read-out: MTT, IC50 BJ
Method in brief: as §2

K562 = assay: Cytostatic/cytotoxic MTT assay, K562; conditions: Homo sapiens, read-out: MTT, IC50 K562
Method in brief: (§4)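 IC50 values reflect the drug concentration halving cell growth in a 72 h MTT assay. Readings were taken at 540 nm after SDS lysis, using duplicate four-fold dilution series on cells plated a day earlier.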

[2] = tested on: Huh-7 cells harboring replicon 2A; assay: Cytotoxicity in replicon 2A cells; conditions: HCV subtype 2A replicon
Procedure: as §1

A549 = assay: Cytostatic/cytotoxic MTT assay, A549; conditions: Homo sapiens, read-out: MTT, IC50 A549
Method in brief: as §4

CCRF-CEM = assay: Cytostatic/cytotoxic MTT assay, CCRF-CEM; conditions: Homo sapiens, read-out: MTT, IC50 CCRF-CEM
Method in brief: as §4

[3] = Huh-7 cells, HCV subtype 2A replicon, read-out: Replicon 2A EC50
[4] = MRC5, non-malignant fibroblasts, 72 h

SMILES | EC50 [1, 3] [µM] | IC50 (MRC-5; [4]) [µM] | IC50 (CEM-DNR-bulk; daunorubicin resistant subline) [µM] | IC50 (K562-TAX; paclitaxel resistant subline) [µM] | IC50 (BJ; non-malignant fibroblasts) [µM] | IC50 (K562; K562, 72 h incubation) [µM] | CC50 [2] [µM] | IC50 (A549; A549, 72 h incubation) [µM] | IC50 (CCRF-CEM; 72 h incubation) [µM] | EC50 ([1]; Huh-7, read-out: Replicon 2A EC50) [µM] | IC50 (MRC-5; MRC5, 72 h) [µM] | IC50 (CEM-DNR-bulk) [µM] | IC50 (K562-TAX) [µM] | IC50 (BJ) [µM] | IC50 (K562; K562, 72 h) [µM] | IC50 (A549; A549, 72 h) [µM] | IC50 (CCRF-CEM; 72 h) [µM]
COc1ncnc2c1ccn2[C@@H]1O[C@H](CO)[C@@H](O)[C@H]1O [RC1, reference compound] | > 44 | > 100 | > 20 | > 20 | > 100 | > 20 | > 44 | > 20 | > 20 |  |  |  |  |  |  |  | 
COc1ncnc2c1c(-c1ccoc1)cn2[C@@H]1O[C@H](CO)[C@@H](O)[C@H]1O [Compound 1b, 5-(Furan-3-yl)-4-methoxy-7-(β-D-ribofuranosyl)-7H-pyrrolo[2,3-d]pyrimidine] | 8.28 | 29.4 | > 20 | 2.82 | 28.8 | 0.19 | > 44 | 1.16 | 0.11 |  |  |  |  |  |  |  | 
C#Cc1cn([C@@H]2O[C@H](CO)[C@@H](O)[C@H]2O)c2ncnc(N(C)C)c12 [Compound 4g, 4-Dimethylamino-5-ethynyl-7-(β-D-ribofuranosyl)-7H-pyrrolo[2,3-d]pyrimidine] | 0.1 | 36.1 | 0.24 | 0.26 | 0.41 | 0.11 | > 44 | 0.39 | 0.09 |  |  |  |  |  |  |  | 
CN(C)c1ncnc2c1c(-c1ccsc1)cn2[C@@H]1O[C@H](CO)[C@@H](O)[C@H]1O [Compound 4d, 4-Dimethylamino-7-(β-D-ribofuranosyl)-5-(thiophen-3-yl)-7H-pyrrolo[2,3-d]pyrimidine] | > 44 | > 100 | > 20 | > 20 | > 100 | 0.53 | > 44 | > 20 | 3.48 |  |  |  |  |  |  |  | 
CN(C)c1ncnc2c1c(I)cn2[C@@H]1O[C@H](CO)[C@@H](O)[C@H]1O [Compound 4h, 4-Dimethylamino-5-iodo-7-(β-D-ribofuranosyl)-7H-pyrrolo[2,3-d]pyrimidine] | > 44 | 91.7 | 0.1 | 0.05 | 45.7 | 0.07 | > 44 | 0.34 | 1.59 |  |  |  |  |  |  |  | 
CSc1ncnc2c1ccn2[C@@H]1O[C@H](CO)[C@@H](O)[C@H]1O [RC2, reference compound] |  |  |  |  |  |  | > 44 |  |  | > 44 | > 100 | 3.61 | 0.1 | > 100 | > 20 | > 20 | > 20
CSc1ncnc2c1c(-c1ccccc1)cn2[C@@H]1O[C@H](CO)[C@@H](O)[C@H]1O [Compound 2e, 4-Methylsulfanyl-5-phenyl-7-(β-D-ribofuranosyl)-7H-pyrrolo[2,3-d]pyrimidine] | > 44 | > 100 | > 20 | > 20 | > 100 | > 20 | > 44 | > 20 | > 20 |  |  |  |  |  |  |  | 
CNc1ncnc2c1c(-c1ccccc1)cn2[C@@H]1O[C@H](CO)[C@@H](O)[C@H]1O [Compound 3e, 4-Methylamino-5-phenyl-7-(β-D-ribofuranosyl)-7H-pyrrolo[2,3-d]pyrimidine] | > 44 | > 100 | > 20 | > 20 | > 100 | > 20 | > 44 | > 20 | > 20 |  |  |  |  |  |  |  | 
